Results taken from US20100136022A1, “METHOD FOR MODULATING THE IMMUNE RESPONSE BY ACTIVATING OR INACTIVATING THE NOTCH AND/OR STAT4 SIGNAL PATH” (DEUTSCHES RHEUMA-FORSCHUNGSZENTRUM BERLIN, priority 2007, published 2010).

Columns and labels:
[1] = system: Notch; assay: IL-10 expression in lymphatic node cells after transfer of OVA-specific Th cells and OVA/CpG immunization (Example 12); assay type: in vivo; conditions: mice received 10 μM/kg; lymphatic node cells after 5 days; FIG. 13
Protocol: 1·10^7 antigen specific (OVA-TZR transgenic) naive Th cells were transferred into recipient mice which were subsequently immunized s.c. with 50 μg of OVA/20 μg of CpG. After 5 days the lymphatic node cells were restimulated with PMA/ionomycin and analyzed using intracellular cytokine staining. IFN-γ/IL-10 double-positive cells were induced under these conditions. The expression of IL-10 was blocked in mice which had received 10 μM/kg of a Notch inhibitor (γ-secretase inhibitor, DBZ, Syncom) (FIG. 13).

[2] = system: Notch signaling pathway; assay: IL-10 expression of human T cells cocultured with plasmacytoid or myeloid dendritic cells (Example 15); assay type: cell-based; conditions: 85 nM inhibitor, SEB 1 μg/ml, 6 days
[3] = system: Notch signaling pathway; assay: IL-10 induction in T helper cells cultured with CD11c+ dendritic cells, IL-12 and/or CpG (Example 11); assay type: cell-based, mouse; conditions: 125 nM inhibitor, OVA peptide, 5 days, FIG. 12
Protocol: (§1) Antigen-specific (OVA-TZR transgenic) naive CD4+CD25-CD62L+T helper cells were isolated using flow cytometry, cultured with CD11c+ dendritic cells from spleen and lymphatic nodes (at a ratio of 20:1) in the presence of IL-12 (10 ng/ml) and/or 1 μM CpG and stimulated with OVA peptide (0.2 μg/ml). After 5 days the cells were restimulated with PMA/ionomycin, and their cytokine expression was analyzed using intracellular staining.
The expression of IL-10 can be blocked by a specific inhibitor of the Notch signaling pathway (γ-secretase inhibitor, Calbiochem, 125 nM).

[4] = system: Notch signaling pathway; assay: IL-10 induction in T helper cells cocultured with A20-B cells expressing Notch ligands DII-1 or DII-4 (Example 9); assay type: cell-based, mouse; conditions: 125 nM inhibitor; IL-12 10 ng/ml, OVA peptide, 5 days, intracellular staining; FIG. 10A
Protocol: as §1, with “A20-B” for “CD11c+ dendritic”, “cells” for “cells from spleen and lymphatic nodes”, “2:1)” for “20:1)”, “ng/ml), which cells express the Notch ligands DII-1 or DII-4,” for “ng/ml) and/or 1 μM CpG”
This induction can be blocked in a specific manner by an inhibitor of the Notch signaling pathway (γ-secretase inhibitor, 125 nM Insolution γ-secretase inhibitor X, Calbiochem) (FIG. 10A). Further coculturing in the presence of the DII-1 and DII-4 ligands dramatically increases the IL-10 production (FIG. 10B).

[5] = system: CD11c-positive dendritic cells; assay: Expression of Notch ligands in dendritic cells after TLR stimulation (Example 10); assay type: cell-based, mice; conditions: stimulation for 15 h; 50 μg/ml pIC, 1 μg/ml LPS, 1 μg/ml flagellin or 1 μM CpG; FIG. 11
Protocol: CD11c-positive dendritic cells were isolated from spleen and lymphatic nodes of naive mice using flow cytometry and stimulated with 50 μg/ml pIC (TLR3), 1 μg/ml LPS (TLR4), 1 μg/ml flagellin (TLR5) or 1 μM CpG (TLR9) for 15 h.

[6] = system: STAT4; assay: IL-10 production (ELISA) of Notch3IC-transduced Th cells cultured with interleukin 27 (Example 5); assay type: cell-based, mice; conditions: 10 ng/ml interleukin 27, wild-type vs STAT4-deficient, FIG. 6
Protocol: Naive CD4+-CD25-CD62L+T helper cells from wild-type (C57BU6) or STAT4-deficient mice were isolated using flow cytometry. The cells were subsequently cultured with irradiated (30 Gy) MHCII+ antigen-presenting cells at a ratio of 1:4 in the presence of interleukin 27 (10 ng/ml). Stimulation was effected polyclonally using 0.5 μg/ml anti-CD3 and 1 μg/ml anti-CD28. After 24 h the cells were retro-virally transduced with active Notch3 (Notch3IC). To this end, the cells were centrifuged with virus supernatant for 75 min at 750×g and 32° C. After 5 days the cells were restimulated with PMA/ionomycin, and their cytokine production was analyzed using ELISA.
No IL-10 production is observed in the event of STAT4-deficient cells.

C[C@H](NC(=O)Cc1cc(F)cc(F)c1)C(=O)N[C@@H]1C(=O)N(C)c2ccccc2-c2ccccc21 [DBZ]
expression of IL-10 (IFN-γ/IL-10 double-positive cells) [1]: blocked

CC(C)C[C@H](NC(=O)[C@H](Cc1ccccc1)C[C@@H](O)[C@H](Cc1ccccc1)NC(=O)OC(C)(C)C)C(=O)N[C@@H](Cc1ccccc1)C(N)=O [Insolution γ-secretase inhibitor X]
IL-10 expression, naive T cells cocultured with plasmacytoid dendritic cells ([2]; FIG. 16A): blocked
IL-10 production, memory T cells cocultured with plasmacytoid or myeloid dendritic cells ([2]; FIG. 16B): blocked in either case
expression of IL-10 in the T cells [3]: blocked
IL-10 production induced by coculturing with Delta-like ligands [4]: blocked

flagellin
Expression of Delta-like 1 [5]: largely unchanged
Expression of Jagged 1 [5]: largely unchanged
expression of the Delta-like 4 Notch ligand [5]: enhanced

B1: IL-27: STAT4-activating cytokine of the IL-12 family (protein, UniProt Q8NEV9 29-243; Q14213 21-229, looked up)
Interleukin-27 subunit alpha: FPRPPGRPQLSLQELRREFTVSLHLARKLLSEVRGQAHRFAESHLPGVNLYLLPLGEQLPDVSLTFQAWRRLSDPERLCFISTTLQPFHALLGGLGTQGRWTNMERMQLWAMRLDLRDLQRHLRFQVLAAGFNLPEEEEEEEEEEEEERKGLLPGALGSALQGPAQVSWPQLLSTYRLLHSLELVLSRAVRELLLLSKAGHSVWPLGFPTLSPQP
Interleukin-27 subunit beta: RKGPPAALTLPRVQCRASRYPIAVDCSWTLPPAPNSTSPVSFIATYRLGMAARGHSWPCLQQTPTSTSCTITDVQLFSMAPYVLNVTAVHPWGSSSSFVPFITEHIIKPDPPEGVRLSPLAERQLQVQWEPPGSWPFPEIFSLKYWIRYKRQGAARFHRVGPIEATSFILRAVRPRARYYVQVAAQDLTDYGELSDWSLPATATMSLGK
IL-10 production together with Notch, STAT4-dependent [6]: induction of IL-10
